Measured values published in patent US9513294B2, “Megastokes amino-triazolyl-BODIPY compounds and applications to live neuron staining and human serum albumin FA1 drug site probing” (National University of Singapore, priority 2012, dated 2016).
Each block holds one compound with its values, some of them ahead of it.

Experiments:
[1] = Quantum yield measurements versus Acridine Yellow in EtOH; format: physicochemical; conditions: for φ (quantum yield): excitation 460 nm; for φ (%): quantum yield
Method: (§1) ^1H-NMR, ^19F-NMR and ^13C-NMR spectra were recorded on Bruker ACF300 (300 MHz), DPX300 (300 MHz) and AMX500 (500 MHz) spectrometers. High resolution mass spectra (ESI) were obtained on a Finnigan/MAT 95XL-T spectrometer. Spectroscopic and quantum yield data were measured on a SpectraMax M2 spectrophotometer (Molecular Devices). Data analysis was performed using GraphPrism 5.0. Analytical characterization was performed on a HPLC-MS (Agilent-1200 series) with a DAD detector and a single quadrupole mass spectrometer (6130 series) with an ESI probe. Analytical HPLC method: eluents, A: H2O (0.1% HCOOH), B: CH3CN (0.1% HCOOH), gradient 5% B to 95% B (10 min). Reverse-phase Phenomenex C18 Luna column (4.6×50 mm^2, 3.5 […]), flow rate: 1 mL/min.
Quantum yields were calculated by measuring the integrated emission area of the fluorescent spectra and comparing to the area measured for Acridine Yellow in EtOH when excited at 460 nm (Φfluorescence^AcridineYellow=0.47). Quantum yields for the amino-triazolyl-BODIPYs were calculated using the equation below, where F represents the area of fluorescent emission, η is the refractive index of the solvent, and Abs is absorbance at the excitation wavelength selected for standards and samples. Emission was integrated between 510 and 700 nm.

[2] = Absorbance and fluorescence emission spectra (SpectraMax M2); format: physicochemical; conditions: for λmax Absorp. (nm) / λmax Emission (nm): MKCA compound library; for λmax Absorp. (nm) / λmax Abs. (nm): absorbance maximum; for λmax Emission (nm) / λmax Em. (nm): fluorescence emission maximum; for λmax Abs. (nm) / λmax Em. (nm): MKAC compound library
Method: BDC-8 (Blue): absorbance λmax=473 nm, emission λmax=585 nm; MK101-8 (Green): absorbance λmax=474 nm, emission λmax=563 nm; MKHA374-48 (Yellow): absorbance λmax=468 nm, λem=557 nm. The corresponding spectra of a reported BODIPY (BD-27; Red) are also included for comparison: absorbance λmax=551 nm, emission λmax=568 nm. The structures of BDC-8, MK101-8, MKHA374-48 and BD-27 are also depicted.
as §1

φ (quantum yield) ([1]; MK library, Table 5): 0.36% | λmax Absorp. ([2]; MK library, Table 5): 476 nm | λmax Emission ([2]; MK library, Table 5): 579 nm
SMILES: CN(Cc1ccccc1)C1=[N+]2C(=C(c3ccc(N)cc3)c3ccc(-n4cc(CC5CCCCC5)nn4)n3[B-]2(F)F)C=C1 [MK195-8]

φ (quantum yield) ([1]; BDC library, Table 2): 0.11% | λmax Absorp. ([2]; BDC library, Table 2): 476 nm | λmax Emission ([2]; BDC library, Table 2): 590 nm
SMILES: CC(C)CCc1cn(-c2ccc3n2[B-](F)(F)[N+]2=C(N4CCCCC4)C=CC2=C3c2ccc(N)cc2)nn1 [BDC-36]

φ (%) ([1]; MKCA compound library): 4.04% | λmax Absorp. (nm) [2]: 461 nm | λmax Emission (nm) [2]: 570 nm
SMILES: CC(C)Cc1cn(-c2ccc3n2[B-](F)(F)[N+]2=C(N4CCCC4)C=CC2=C3c2ccc(NC(=O)CCl)cc2)nn1 [MKCA215-43]

φ (quantum yield) ([1]; BDCCA library, Table 4): 0.6% | λmax Absorp. ([2]; BDCCA library, Table 4): 468 nm | λmax Emission ([2]; BDCCA library, Table 4): 589 nm
SMILES: O=C(CCl)Nc1ccc(C2=C3C=CC(N4CCCCC4)=[N+]3[B-](F)(F)n3c2ccc3-n2cc(CC3CCCCC3)nn2)cc1 [BDCCA-8]

φ (quantum yield) ([1]; BDCAC library, Table 3): 1.5% | λmax Absorp. ([2]; BDCAC library, Table 3): 467 nm | λmax Emission ([2]; BDCAC library, Table 3): 578 nm
SMILES: CC(=O)Nc1ccc(C2=C3C=CC(N4CCCCC4)=[N+]3[B-](F)(F)n3c2ccc3-n2cc(C3CC3)nn2)cc1 [BDCAC-4]

φ (quantum yield) ([1]; BDCAC library, Table 3): 0.7% | λmax Absorp. ([2]; BDCAC library, Table 3): 462 nm | λmax Emission ([2]; BDCAC library, Table 3): 586 nm
SMILES: CC(=O)Nc1ccc(C2=C3C=CC(N4CCCCC4)=[N+]3[B-](F)(F)n3c2ccc3-n2cc(-c3ccc(F)c(F)c3)nn2)cc1 [BDCAC-16]

φ (quantum yield) ([1]; BDC library, Table 2): 0.13% | λmax Absorp. ([2]; BDC library, Table 2): 476 nm | λmax Emission ([2]; BDC library, Table 2): 586 nm
SMILES: CCCCCC(O)c1cn(-c2ccc3n2[B-](F)(F)[N+]2=C(N4CCCCC4)C=CC2=C3c2ccc(N)cc2)nn1 (stereo not drawn) [BDC-69]

φ (%) ([1]; MKAC compound library): 20.12% | λmax Abs. (nm) [2]: 465 nm | λmax Em. (nm) [2]: 562 nm
SMILES: CC(=O)Nc1ccc(C2=C3C=CC(NCc4ccccc4C)=[N+]3[B-](F)(F)n3c2ccc3-n2cc(CC(C)C)nn2)cc1 [MKAC101-43]

φ (quantum yield) ([1]; BDCAC library, Table 3): 2.4% | λmax Absorp. ([2]; BDCAC library, Table 3): 464 nm | λmax Emission ([2]; BDCAC library, Table 3): 556 nm
SMILES: CC(=O)Nc1ccc(C2=C3C=CC(N4CCCCC4)=[N+]3[B-](F)(F)n3c2ccc3-n2cc(-c3ccc(C)cc3)nn2)cc1 [BDCAC-10]

φ (%) ([1]; MKCA compound library): 3.03% | λmax Absorp. (nm) [2]: 462 nm | λmax Emission (nm) [2]: 580 nm
SMILES: CN(Cc1ccccc1)Cc1cn(-c2ccc3n2[B-](F)(F)[N+]2=C(N(C)Cc4ccccc4)C=CC2=C3c2ccc(NC(=O)CCl)cc2)nn1 [MKCA195-18]

φ (quantum yield) ([1]; MK library, Table 5): 2.01% | λmax Absorp. ([2]; MK library, Table 5): 473 nm | λmax Emission ([2]; MK library, Table 5): 564 nm
SMILES: CCOc1ccccc1CNC1=[N+]2C(=C(c3ccc(N)cc3)c3ccc(-n4cc(C5CCCC5)nn4)n3[B-]2(F)F)C=C1 [MK103-5]

φ (%) ([1]; MKAC compound library): 24.86% | λmax Abs. (nm) [2]: 464 nm | λmax Em. (nm) [2]: 565 nm
SMILES: CCOc1ccccc1CNC1=[N+]2C(=C(c3ccc(NC(C)=O)cc3)c3ccc(-n4cc(C5CC5)nn4)n3[B-]2(F)F)C=C1 [MKAC103-4]

φ (quantum yield) ([1]; MK library, Table 5): 2.03% | λmax Absorp. ([2]; MK library, Table 5): 472 nm | λmax Emission ([2]; MK library, Table 5): 560 nm
SMILES: Cc1ccccc1CNC1=[N+]2C(=C(c3ccc(N)cc3)c3ccc(-n4cc(CCc5ccccc5)nn4)n3[B-]2(F)F)C=C1 [MK101-19]

φ (%) ([1]; MKAC compound library): 17.25% | λmax Abs. (nm) [2]: 465 nm | λmax Em. (nm) [2]: 562 nm
SMILES: CCCc1cn(-c2ccc3n2[B-](F)(F)[N+]2=C(NCc4ccccc4C)C=CC2=C3c2ccc(NC(C)=O)cc2)nn1 [MKAC101-48]

φ (quantum yield) ([1]; MK library, Table 5): 0.92% | λmax Absorp. ([2]; MK library, Table 5): 475 nm | λmax Emission ([2]; MK library, Table 5): 564 nm
SMILES: Nc1ccc(C2=C3C=CC(NCc4cc(F)cc(F)c4)=[N+]3[B-](F)(F)n3c2ccc3-n2cc(CCc3ccccc3)nn2)cc1 [MK412-19]

φ (quantum yield) ([1]; MK library, Table 5): 0.85% | λmax Absorp. ([2]; MK library, Table 5): 474 nm | λmax Emission ([2]; MK library, Table 5): 564 nm
SMILES: COc1ccc(OC)c(CNC2=[N+]3C(=C(c4ccc(N)cc4)c4ccc(-n5cc(CCc6ccccc6)nn5)n4[B-]3(F)F)C=C2)c1 [MK181-19]

φ (quantum yield) ([1]; BDCCA library, Table 4): 1.2% | λmax Absorp. ([2]; BDCCA library, Table 4): 466 nm | λmax Emission ([2]; BDCCA library, Table 4): 575 nm
SMILES: CCCCCCCCCCc1cn(-c2ccc3n2[B-](F)(F)[N+]2=C(N4CCCCC4)C=CC2=C3c2ccc(NC(=O)CCl)cc2)nn1 [BDCCA-49]

φ (quantum yield) ([1]; BDCCA library, Table 4): 0.9% | λmax Absorp. ([2]; BDCCA library, Table 4): 467 nm | λmax Emission ([2]; BDCCA library, Table 4): 587 nm
SMILES: CCCC(C)c1cn(-c2ccc3n2[B-](F)(F)[N+]2=C(N4CCCCC4)C=CC2=C3c2ccc(NC(=O)CCl)cc2)nn1 (racemic) [BDCCA-3]
